Experiments:
[1] = molecular target: T1, Amine oxidase [flavin-containing] A (Homo sapiens, UniProt P21397); assay: Inhibition of human recombinant MAOA by fluorimetric method
T1 sequence (P21397 whole entry): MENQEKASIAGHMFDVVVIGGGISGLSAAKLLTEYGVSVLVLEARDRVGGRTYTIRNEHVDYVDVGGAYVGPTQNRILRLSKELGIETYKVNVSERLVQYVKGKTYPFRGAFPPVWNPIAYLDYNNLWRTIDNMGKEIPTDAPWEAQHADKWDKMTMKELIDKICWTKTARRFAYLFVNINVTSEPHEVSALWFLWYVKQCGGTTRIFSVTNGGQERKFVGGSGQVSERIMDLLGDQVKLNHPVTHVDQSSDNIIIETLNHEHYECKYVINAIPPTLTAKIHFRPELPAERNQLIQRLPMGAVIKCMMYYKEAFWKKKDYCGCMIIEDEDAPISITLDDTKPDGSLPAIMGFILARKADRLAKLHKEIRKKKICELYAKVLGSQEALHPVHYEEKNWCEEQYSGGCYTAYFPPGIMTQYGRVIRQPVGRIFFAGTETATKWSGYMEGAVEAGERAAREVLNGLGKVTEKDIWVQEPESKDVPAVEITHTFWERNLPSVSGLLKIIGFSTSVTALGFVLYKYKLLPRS

[2] = molecular target: T2, Amine oxidase [flavin-containing] B (Homo sapiens, UniProt P27338); assay: Inhibition of human recombinant MAOB at 50 uM by fluorimetric method
T2 sequence (P27338 whole entry): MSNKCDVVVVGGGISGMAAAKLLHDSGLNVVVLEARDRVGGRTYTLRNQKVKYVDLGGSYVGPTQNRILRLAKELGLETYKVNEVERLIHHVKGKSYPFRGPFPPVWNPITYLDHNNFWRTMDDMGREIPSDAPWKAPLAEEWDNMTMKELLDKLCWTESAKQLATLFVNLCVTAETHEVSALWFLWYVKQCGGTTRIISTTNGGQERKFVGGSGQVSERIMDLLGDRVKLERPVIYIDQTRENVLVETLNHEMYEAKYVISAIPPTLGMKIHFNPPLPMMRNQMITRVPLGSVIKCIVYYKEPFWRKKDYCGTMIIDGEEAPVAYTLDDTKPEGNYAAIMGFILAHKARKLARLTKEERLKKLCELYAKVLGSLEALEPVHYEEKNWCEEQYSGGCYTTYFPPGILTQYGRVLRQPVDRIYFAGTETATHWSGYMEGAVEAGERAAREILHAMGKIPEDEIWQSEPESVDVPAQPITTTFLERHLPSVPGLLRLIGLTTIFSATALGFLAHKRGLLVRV

Homo sapiens = species on record: Homo sapiens; assay: Selectivity ratio of IC50 for human recombinant MAOA to IC50 for human recombinant MAOB
[3] = molecular target: T2, Amine oxidase [flavin-containing] B
Description: Inhibition of human recombinant MAOB by fluorimetric method

[4] = molecular target: T2, Amine oxidase [flavin-containing] B; assay: Inhibition of human recombinant MAOB at 100 uM by fluorimetric method
[5] = molecular target: T1, Amine oxidase [flavin-containing] A; assay: Inhibition of human recombinant MAOA at 100 uM by fluorimetric method
[6] = molecular target: T1, Amine oxidase [flavin-containing] A; assay: Inhibition of human liver MAOA
[7] = molecular target: T2, Amine oxidase [flavin-containing] B; assay: Inhibition of human recombinant MAOB at 1 mM by fluorimetric method; conditions: 1000 µM
[8] = molecular target: T2, Amine oxidase [flavin-containing] B; assay: Inhibition of human liver MAOB

SMILES	IC50 [1] [µM]	Ratio IC50 (Homo sapiens)	IC50 [3] [µM]	Activity [5]	further results
COc1c(OC2CCCCC2=O)ccc2c(C)cc(=O)oc12 (centres undefined)	15.4	< 0.31	–	–	Activity [2]: Not Active
Cc1cc(=O)oc2cc(OC3CCCC3=O)ccc12 (centres undefined)	0.0405	0.0073	5.57	–	–
COc1c(O)ccc2cc(N)c(=O)oc12	–	–	–	Not Active	Activity [4]: Not Active
COc1cc(O)cc2oc(=O)ccc12	–	–	–	Not Active	Activity [4]: Not Active
Cc1cc(=O)oc2c(C)c(O)ccc12	–	–	71.3	Not Active	–
COc1cc(OC2CCCCC2=O)cc2oc(=O)ccc12 (centres undefined)	20.4	< 0.41	–	–	Activity [2]: Not Active
COc1c(OCC(C)=O)ccc2c3c(c(=O)oc12)CCC3	0.121	0.0093	13	–	–
Cc1cc(=O)oc2c(C)c3oc4c(c3cc12)CCC4	32.8	0.45	73.2	–	–
Cc1cc(=O)oc2c(C)c3oc4c(c3cc12)CCCC4	–	–	–	Not Active	Activity [4]: Not Active
Cc1c(O)ccc2c3c(c(=O)oc12)CCC3	–	–	–	Not Active	Activity [4]: Not Active
COc1c2ccc(=O)oc2cc2occ(C)c12	255	0.98	260	–	–
COc1c(OCC(C)=O)ccc2c3c(c(=O)oc12)CCCC3	0.396	0.033	12.1	–	–
CC(=O)COc1ccc2c(oc(=O)c3ccccc32)c1C	2.56	0.091	28.1	–	–
C=C(Br)COc1ccc2c3c(c(=O)oc2c1C)CCC3	0.13	110	0.00118	–	–
C=C(Br)COc1ccc2c3c(c(=O)oc2c1C)CCCC3	0.695	2.94	0.236	–	–
CC(=O)COc1ccc2c3c(c(=O)oc2c1C)CCC3	0.235	1.42	0.165	–	–

SMILES	IC50 [1] [µM]	Ratio IC50 (Homo sapiens)	IC50 [3] [µM]	Activity [5]	further results
COc1c(O)ccc2c3c(c(=O)oc12)CCCC3	–	> 1.99	50.2	Not Active	–
COc1cc(OCC(C)=O)cc2oc(=O)ccc12	–	> 2.27	44.1	Not Active	–
Cc1cc(=O)oc2c(C)c(OC3CCCC3=O)ccc12 (centres undefined)	0.00716	0.00067	10.6	–	–
Cc1cc(=O)oc2c(C)c(OC3CCCCC3=O)ccc12 (centres undefined)	0.4	0.1	3.87	–	–
COc1c2occc2cc2cc(N)c(=O)oc12	12.2	0.74	16.5	–	–
COc1c(OCC(C)=O)ccc2c1oc(=O)c1ccccc12	11.9	1.27	9.36	–	–
CN(C)/N=N/c1[nH]cnc1C(N)=O [DACARBAZINE]	–	–	–	–	Activity [6]: Not Active; Activity [7]: Not Active
C[C@H]1O[C@@H](O[C@H]2[C@@H](O)C[C@H](O[C@H]3[C@@H](O)C[C@H](O[C@H]4CC[C@@]5(C)[C@H](CC[C@@H]6[C@@H]5CC[C@]5(C)[C@@H](C7=CC(=O)OC7)CC[C@]65O)C4)O[C@@H]3C)O[C@@H]2C)C[C@H](O)[C@@H]1O [DIGITOXIN]	–	–	–	Not Active	Activity [6]: Not Active; Activity [8]: Not Active
C[C@H]1O[C@@H](O[C@H]2[C@@H](O)C[C@H](O[C@H]3[C@@H](O)C[C@H](O[C@H]4CC[C@@]5(C)[C@H](CC[C@@H]6[C@@H]5C[C@@H](O)[C@]5(C)[C@@H](C7=CC(=O)OC7)CC[C@]65O)C4)O[C@@H]3C)O[C@@H]2C)C[C@H](O)[C@@H]1O [DIGOXIN]	–	–	–	Not Active	Activity [6]: Not Active; Activity [8]: Not Active
Cc1cc(=O)oc2cc(O)ccc12 [HYMECROMONE]	–	–	80.4	Not Active	–
CCN(CC)CC(=O)Nc1c(C)cccc1C [LIDOCAINE]	–	–	–	–	Activity [7]: Not Active
C[C@@H]1O[C@@H](O[C@H]2C[C@](O)(C(=O)CO)Cc3c(O)c4c(c(O)c32)C(=O)c2ccccc2C4=O)C[C@H](N)[C@@H]1O [MEDORUBICIN]	–	–	–	–	Activity [7]: Not Active
CN(Cc1cnc2nc(N)nc(N)c2n1)c1ccc(C(=O)N[C@@H](CCC(=O)O)C(=O)O)cc1 [METHOTREXATE]	–	–	–	–	Activity [7]: Not Active
COC(F)(F)C(Cl)Cl [METHOXYFLURANE]	–	–	–	–	Activity [7]: Not Active
O=C(NCCN1CCOCC1)c1ccc(Cl)cc1 [MOCLOBEMIDE]	–	–	–	–	Activity [7]: Not Active
CC(C)(S)[C@@H](N)C(=O)O [PENICILLAMINE]	–	–	–	Not Active	Activity [6]: Not Active; Activity [8]: Not Active

Source: ChEMBL document CHEMBL1152129, “Quantitative structure-activity relationship and complex network approach to monoamine oxidase A and B inhibitors” (J Med Chem, 2008)
